In paper PMC11651172, “Suite of Biochemical and Cell-Based Assays for the Characterization of Kirsten Rat Sarcoma (KRAS) Inhibitors and Degraders” (ACS Pharmacology & Translational Science, 2024):
“Also recorded” adds a separate entry of the source. Read-outs that look alike come from different tables or passages of the source.

Experiments:
KRAS(G12C) [1] = molecular target: T1, KRAS(G12C) (Homo sapiens, UniProt P01116, G12C); assay: pulse target engagement assay; type: cell-based; set-up: knocking in an ED fragment (and the relevant mutation in KRAS) into the KRAS locus by CRISPR technology; ED tag (ePL, enhanced ProLink); host or cells: A549 (SPRINTer A549 KRAS G12C, homozygous CRISPR knock-in); conditions: KRAS(G12C) cells, 1 or 5 h incubation, 3 min at 67 °C
Protocol: (§1) Next, we explored the application of KRAS cell lines for a pulse target engagement (TE) assay to profile compounds or identify new ligands. The TE assay is based on the observation that the direct interaction between a compound and its cellular protein target increases the stability of the protein and reduces its turnover.[48],[49],[51] […] Therefore, in our pulse TE assay, cells are incubated with a compound and then subjected to an elevated temperature to induce protein denaturation. Compound binding protects the target protein from denaturation, and consequently preserves enzyme complementation activities with the cellular ED-tagged fusion protein, producing a robust chemiluminescent signal. In the absence of compound binding, the target protein forms denatured aggregates that leads to a loss of complementation ability and decreased chemiluminescent signal (Figure 7).
(§2) We next performed pulse TE assays with a panel of KRAS inhibitors on three KRAS cell lines. […] Cells were incubated with the compounds for 1 or 5 h, followed by a 3 min incubation at 67 °C.
(§3) The pulse target engagement assay was set up in a 96-well format with an 11-point dose response curve (triplicates/dose) and vehicle control. Cells were collected and diluted in complete medium that allowed for a cell seeding of 5000 cells in 40 μL per well in 96-well PCR plates (black, Thermo Fisher Scientific, Waltham, MA). […]
Target sequence in this assay (P01116 1-188 isoform P01116-2 G12C): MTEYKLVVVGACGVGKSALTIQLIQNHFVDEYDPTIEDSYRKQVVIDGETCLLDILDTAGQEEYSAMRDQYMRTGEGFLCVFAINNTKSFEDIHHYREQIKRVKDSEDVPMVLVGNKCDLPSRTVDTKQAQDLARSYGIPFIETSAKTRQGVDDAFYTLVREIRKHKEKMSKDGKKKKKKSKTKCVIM

KRAS(WT) [2] = molecular target: T2, KRAS(WT) (Homo sapiens, UniProt P01116); assay: pulse target engagement assay; type: cell-based; conditions: KRAS(WT) cells, 1 or 5 h incubation, 3 min at 67 °C
T2 construct: knocking in an ED fragment (and the relevant mutation in KRAS) into the KRAS locus by CRISPR technology; ED tag (ePL, enhanced ProLink); host or cells: A549 (SPRINTer A549 KRAS WT, homozygous CRISPR knock-in)
T2 sequence (P01116 1-188 isoform P01116-2): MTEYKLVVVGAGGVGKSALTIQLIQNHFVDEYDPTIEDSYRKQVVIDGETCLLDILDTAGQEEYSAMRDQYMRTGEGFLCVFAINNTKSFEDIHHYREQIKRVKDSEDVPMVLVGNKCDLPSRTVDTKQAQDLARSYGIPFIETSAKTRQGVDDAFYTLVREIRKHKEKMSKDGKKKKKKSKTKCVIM
Protocol: as §1, §2, §3

KRAS(G12D) [3] = molecular target: T3, KRAS(G12D) (Homo sapiens, UniProt P01116, G12D); assay: pulse target engagement assay; type: cell-based; conditions: KRAS(G12D) cells, 1 or 5 h incubation, 3 min at 67 °C
T3 construct: knocking in an ED fragment (and the relevant mutation in KRAS) into the KRAS locus by CRISPR technology; ED tag (ePL, enhanced ProLink); host or cells: A549 (SPRINTer A549 KRAS G12D, CRISPR knock-in)
T3 sequence (P01116 1-188 isoform P01116-2 G12D): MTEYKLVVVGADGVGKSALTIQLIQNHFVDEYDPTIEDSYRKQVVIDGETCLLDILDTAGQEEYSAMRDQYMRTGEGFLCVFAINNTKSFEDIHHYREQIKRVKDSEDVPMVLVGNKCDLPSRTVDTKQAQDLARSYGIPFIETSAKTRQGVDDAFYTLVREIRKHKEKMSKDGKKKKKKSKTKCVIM
Protocol: as §1, §2, §3

KRAS(G12C) [4] = molecular target: T1, KRAS(G12C); assay: targeted protein degradation assay (EFC); type: cell-based; set-up: knocking in an ED fragment (and the relevant mutation in KRAS) into the KRAS locus by CRISPR technology; ED tag (ePL, enhanced ProLink); host or cells: A549 (SPRINTer A549 KRAS G12C, homozygous CRISPR knock-in)
Protocol: (§4) We tested the KRAS(G12C)-specific protein degrader LC2 (Figure 1C) with our three KRAS cell lines in the developed protein degradation assay. The assay was set up in homogeneous 384-well format with an 11-point dose response curve, with a top dose of 10 μM and each dose tested in quadruplicate. Cells were incubated with LC2 for 18 h and at the end of incubation, detection reagents containing the complementing EA fragment were added to each well for chemiluminescence quantitation. Shown in Figure 6A, LC2 induced a loss of signal (an indication of protein degradation) in KRAS(G12C) cells with a DC50 of 1.9 μM and a Dmax of 69%, close to the previously described value.[25]
(§5) The gRNAs (crRNA), HiFi Cas9 Nuclease V3, and ATTO 550 tracrRNA used in this study to generate ED-tagged KRAS cell lines were purchased from Integrated DNA Technologies (Coralville, IA). Double-stranded DNAs containing ED or ePL (enhanced ProLink) were purchased from Eurofins Genomics Blue Heron (Bothell, WA). […] The gRNA was first annealed with fluorescence-labeled (ATTO-550) tracrRNA in a 1:1 ratio to form an RNA duplex, followed by incubation with Cas9 nuclease to generate Cas9-gRNA ribonucleoprotein (RNP). […] At 16 h postelectroporation, cells with high fluorescence at 550 nm were sorted to enrich the genome-edited cell populations. […]
Target sequence in this assay (P01116 1-188 isoform P01116-2 G12C): as the sequence (P01116 1-188 isoform P01116-2 G12C) above

KRAS(G12C) [5] = molecular target: T1, KRAS(G12C); set-up: made in house; host or cells: HEK293 (transient transfection, unpurified extract); method as in PMID 32875077, PMID 34715575; conditions: Western blot, among three different cell lines; cited from earlier work
Target sequence in this assay (P01116 1-164 G12C): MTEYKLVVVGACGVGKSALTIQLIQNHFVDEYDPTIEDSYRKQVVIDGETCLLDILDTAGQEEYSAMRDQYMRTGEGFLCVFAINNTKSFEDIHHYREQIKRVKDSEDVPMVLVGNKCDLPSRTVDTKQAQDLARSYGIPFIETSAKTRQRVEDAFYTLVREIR

KRAS(WT) [6] = molecular target: T2, KRAS(WT); assay: targeted protein degradation assay (EFC); type: cell-based; conditions: A549 ED-KRAS(WT) cells, 18 h, top dose 10 μM
Protocol: as §4, §5

KRAS(G12D) [7] = molecular target: T3, KRAS(G12D); assay: targeted protein degradation assay (EFC); type: cell-based; conditions: A549 ED-KRAS(G12D) cells, 18 h, top dose 10 μM
Protocol: as §4, §5

C#Cc1c(F)ccc2cc(O)cc(-c3ncc4c(N5CC6CCC(C5)N6)nc(OC[C@@]56CCCN5C[C@H](F)C6)nc4c3F)c12 [MRTX1133]
target engagement (affinity in words) (KRAS(G12C) [1]): some interaction; also recorded: some binding to KRAS(G12C) and KRAS(WT) proteins at high concentration
target engagement (affinity in words) (KRAS(WT) [2]): some interaction; also recorded: some binding to KRAS(G12C) and KRAS(WT) proteins at high concentration
target engagement (affinity in words) (KRAS(G12D) [3]): high selectivity; also recorded: high affinity

C=C(F)C(=O)N1CCN(c2nc(OC[C@@H]3CCCN3CCCOCCC(=O)N[C@H](C(=O)N3C[C@H](O)C[C@H]3C(=O)NCc3ccc(-c4scnc4C)cc3)C(C)(C)C)nc3c2CCN(c2cccc4cccc(Cl)c24)C3)C[C@@H]1CC#N [LC2]
Dmax (KRAS(G12C) [4]; A549): 69%
DC50 (KRAS(G12C) [4]; A549 ED-KRAS(G12C) cells, 18 h incubation): 1900 nM
DC50 (KRAS(G12C) [5]): 250 to 760 nM
Dmax (KRAS(G12C) [5]): 75%–90%
protein degradation (KRAS(WT) [6]): sparing KRAS(WT)
protein degradation (KRAS(G12D) [7]): some degradation in KRAS(G12D) cells at high doses; also recorded: low levels of KRAS(G12D) degradation only at higher concentrations
